Experimental data reported in ChEMBL document CHEMBL1148111, “Synthesis and biological evaluation of hyperforin analogues. Part I. Modification of the enolized cyclohexanedione moiety” (J Nat Prod, 2002).

Molecular target: Sodium-dependent serotonin transporter (Rattus norvegicus, UniProt P31652)
Test: Inhibition of [3H]5HT reuptake at serotonin transporter in rat brain synaptosomes
Format: subcellular

Chain of Sodium-dependent serotonin transporter (P31652 whole entry): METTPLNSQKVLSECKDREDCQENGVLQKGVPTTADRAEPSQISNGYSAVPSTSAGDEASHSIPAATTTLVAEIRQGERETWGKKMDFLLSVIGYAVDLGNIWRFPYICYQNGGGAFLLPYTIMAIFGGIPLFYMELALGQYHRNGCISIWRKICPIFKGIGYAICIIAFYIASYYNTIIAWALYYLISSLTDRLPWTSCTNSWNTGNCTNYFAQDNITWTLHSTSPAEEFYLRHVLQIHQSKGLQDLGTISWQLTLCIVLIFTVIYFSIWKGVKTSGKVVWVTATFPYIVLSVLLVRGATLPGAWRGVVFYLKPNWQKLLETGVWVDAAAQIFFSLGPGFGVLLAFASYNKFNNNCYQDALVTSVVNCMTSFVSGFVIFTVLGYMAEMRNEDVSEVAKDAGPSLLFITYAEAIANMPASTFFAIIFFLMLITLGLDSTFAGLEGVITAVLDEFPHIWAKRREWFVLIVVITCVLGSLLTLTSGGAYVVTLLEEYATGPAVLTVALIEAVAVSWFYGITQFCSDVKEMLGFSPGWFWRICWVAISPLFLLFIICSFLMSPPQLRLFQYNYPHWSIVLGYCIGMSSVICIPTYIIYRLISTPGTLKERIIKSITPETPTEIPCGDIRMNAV

SMILES | IC50 [µM]
CC(C)=CCC[C@]1(C)[C@@H](CC=C(C)C)C[C@]2(CC=C(C)C)C(=O)C(CC=C(C)C)=C(O)[C@@]1(C(=O)C(C)C)C2=O | 2.05
CC(C)=CCC[C@]1(C)[C@@H](CC=C(C)C)C[C@]2(CC=C(C)C)C(=O)[C@@](O)(CC=C(C)C)C(=O)[C@@]1(C(=O)C(C)C)C2=O | > 18.1
CC(C)=CCC[C@]1(C)[C@@H](CC=C(C)C)C[C@@]2(CC=C(C)C)C(=O)[C@@]1(C(=O)C(C)C)C(=O)C(CC=C(C)C)=C2OC(=O)c1cc([N+](=O)[O-])cc([N+](=O)[O-])c1 | > 13.7
CC(C)=CCC[C@]1(C)[C@@H](CC=C(C)C)C[C@]2(CC=C(C)C)C(=O)[C@]3(CC=C(C)C)O[C@@]2(O)[C@@]1(C(=O)C(C)C)C3=O | > 18.1
CC(C)=C/C=C1\C(=O)[C@@]2(CC=C(C)C)C[C@H](CC=C(C)C)[C@@](C)(CCC=C(C)C)[C@](C(=O)C(C)C)(C1=O)C2=O | > 18.7
COC1=C(CC=C(C)C)C(=O)[C@]2(C(=O)C(C)C)C(=O)[C@]1(CC=C(C)C)C[C@H](CC=C(C)C)[C@@]2(C)CCC=C(C)C | > 18.2
CC(C)=CCC[C@]1(C)[C@@H](CC=C(C)C)C[C@]23C[C@@H](C(C)(C)O)OC2=C(CC=C(C)C)C(=O)[C@]1(C(=O)C(C)C)C3=O | > 18.1
CC(C)=CCC[C@]1(C)[C@@H](CC=C(C)C)C[C@]2(CC=C(C)C)C(=O)[C@](C)(CC=C(C)C)C(=O)[C@]1(C(=O)C(C)C)C2=O [C-Methylhyperforin] | > 18.2
C=C(C)[C@@H]1C[C@@]23C[C@H](CC=C(C)C)[C@@](C)(CCC=C(C)C)[C@](C(=O)C(C)C)(C(=O)C(CC=C(C)C)=C2O1)C3=O [DEHYDROFUROHYPERFORIN] | > 18.7
CC(C)=CCC[C@]1(C)[C@@H](CC=C(C)C)C[C@@]2(CC=C(C)C)C(=O)[C@]1(C(=O)C(C)C)C(=O)C1=C2OC(C)(C)C=C1 [DEHYDROHYPERFORIN] | > 18.7
CC(=O)OC1=C(CC=C(C)C)C(=O)[C@]2(C(=O)C(C)C)C(=O)[C@]1(CC=C(C)C)C[C@H](CC=C(C)C)[C@@]2(C)CCC=C(C)C [HYPERFORIN ACETATE] | > 17.3
COc1cc(C(=O)OC2=C(CC=C(C)C)C(=O)[C@@]3(C(=O)C(C)C)C(=O)[C@]2(CC=C(C)C)C[C@H](CC=C(C)C)[C@@]3(C)CCC=C(C)C)cc(OC)c1OC [HYPERFORINTRIMETHOXYBENZOATE] | > 13.7
